Test results as given in ChEMBL document CHEMBL1124928, “Inhibition of monoamine oxidases A and B by simple isoquinoline alkaloids: racemic and optically active 1,2,3,4-tetrahydro-, 3,4-dihydro-, and fully aromatic isoquinolines” (J Med Chem, 1990).
Counter-ions that a name gives are not always drawn.

Columns and labels:
[1] = target: T1, Amine oxidase [flavin-containing] A (Homo sapiens, UniProt P21397);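 further: enzyme source: monoamine oxidase A taken from human placenta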
T1 sequence (P21397 whole entry): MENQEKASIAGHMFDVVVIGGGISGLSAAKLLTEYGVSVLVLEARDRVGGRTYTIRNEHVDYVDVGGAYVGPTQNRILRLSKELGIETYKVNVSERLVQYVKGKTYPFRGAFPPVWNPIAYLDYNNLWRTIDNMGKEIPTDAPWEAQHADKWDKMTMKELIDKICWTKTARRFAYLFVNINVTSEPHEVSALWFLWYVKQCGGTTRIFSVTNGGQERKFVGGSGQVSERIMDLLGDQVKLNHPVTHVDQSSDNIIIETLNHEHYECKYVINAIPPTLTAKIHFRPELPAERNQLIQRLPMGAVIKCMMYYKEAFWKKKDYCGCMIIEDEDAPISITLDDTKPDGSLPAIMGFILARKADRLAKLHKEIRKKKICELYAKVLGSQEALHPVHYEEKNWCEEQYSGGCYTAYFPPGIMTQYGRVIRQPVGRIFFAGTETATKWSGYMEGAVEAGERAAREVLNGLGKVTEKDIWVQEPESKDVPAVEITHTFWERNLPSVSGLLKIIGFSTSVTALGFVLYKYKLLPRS

[2] = target: T2, Amine oxidase [flavin-containing] B (Homo sapiens, UniProt P27338); test: Compounds were tested for inhibition against human liver Monoamine oxidase B (competitive inhibition was observed)
T2 sequence (P27338 whole entry): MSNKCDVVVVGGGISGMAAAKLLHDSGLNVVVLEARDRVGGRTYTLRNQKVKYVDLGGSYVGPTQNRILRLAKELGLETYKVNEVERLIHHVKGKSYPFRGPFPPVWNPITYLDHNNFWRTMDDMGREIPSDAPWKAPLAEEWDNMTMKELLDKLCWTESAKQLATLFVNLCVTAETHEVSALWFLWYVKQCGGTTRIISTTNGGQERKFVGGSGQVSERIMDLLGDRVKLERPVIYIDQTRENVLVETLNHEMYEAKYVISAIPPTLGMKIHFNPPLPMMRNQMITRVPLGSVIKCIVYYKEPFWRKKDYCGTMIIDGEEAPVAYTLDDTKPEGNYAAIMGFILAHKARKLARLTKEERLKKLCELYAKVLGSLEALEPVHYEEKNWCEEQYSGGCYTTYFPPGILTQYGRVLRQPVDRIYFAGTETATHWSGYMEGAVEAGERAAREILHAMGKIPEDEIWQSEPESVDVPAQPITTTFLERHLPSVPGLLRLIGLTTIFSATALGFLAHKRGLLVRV

[3] = target: T1, Amine oxidase [flavin-containing] A; test: Compounds were tested for inhibition against human placental Monoamine oxidase A (mixed inhibition was observed)
[4] = target: T1, Amine oxidase [flavin-containing] A; test: Compound was tested for inhibition against human placental Monoamine oxidase A (competitive inhibition was observed)
[5] = target: T2, Amine oxidase [flavin-containing] B; test: Compounds were tested for inhibition against human liver Monoamine oxidase B (mixed inhibition was observed)

Row | Compound | Ki [1] | further results
1 | C[N+]1=Cc2ccccc2CC1 | 130 µM | Ki [2]: 76 µM
2 | COc1ccc2c(c1)CC[N+](C)=C2 | 4 µM | Ki [2]: 15 µM
3 | COc1cc2c(cc1OC)C(C)=NCC2 | 4 µM | 
4 | COc1cc2c(C)nccc2cc1O [listing 1 of 2 here] | 150 µM | 
5 | COc1cc2c(C)nccc2cc1O [listing 2 of 2 here] | 130 µM | 
6 | COc1cc2c(cc1O)C(C)=NCC2 | 13 µM | 
7 | COc1cc2c(cc1OC)CC[N+](C)=C2 | 6 µM | 
8 | COc1cc2c(c(OC)c1OC)C(C)=NCC2 | 2 µM | 
9 | COc1cc2ccncc2c(OC)c1OC | 41 µM | 
10 | COc1cc2c(cc1OC)[C@@H](C)NCC2 | 6 µM | 
11 | COc1c(OC)c(OC)c2c(C)nccc2c1OC | 17 µM | 
12 | COc1cc2c(cc1OC)[C@@H](C)N(C)CC2 | 2 µM | 
13 | COc1cc2c(cc1O)CCN[C@@H]2C | 77 µM | 
14 | CN1CCc2cc(O)c(O)cc2C1 | 1300 µM | 
15 | C[C@H]1NCCc2cc(O)c(O)cc21 | 31 µM | 
16 | COc1cc2c(cc1O)CCN=C2C | 80 µM | 

Row | Compound | Ki [1] | further results
17 | COc1c2c(c(OC)c(OC)c1OC)C(C)=NCC2 | 10 µM | 
18 | CN1CCc2ccccc2C1 |  | Ki [2]: 1 µM
19 | Cc1nccc2cc(O)c(O)cc12 |  | Ki [3]: 130 µM
20 | COc1cc2c(cc1OC)CN(C)CC2 |  | Ki [4]: 27 µM; Ki [2]: 29 µM
21 | COc1cc2c(cc1OC)[C@H](C)NCC2 | 186 µM | 
22 | CC1c2cc(O)c(O)cc2CCN1C (racemic) | 36 µM | 
23 | COc1cc2c(c(OC)c1OC)C(C)NCC2 (racemic) | 170 µM | 
24 | COc1cc2c(c(OC)c1OC)C(C)N(C)CC2 (racemic) | 160 µM | 
25 | COc1c2c(c(OC)c(OC)c1OC)C(C)NCC2 (racemic) | 1000 µM | 
26 | COc1cc2c(cc1O)CCN(C)[C@H]2C (racemic) |  | Ki [3]: 70 µM; Ki [2]: 2300 µM
27 | COc1cc2c(cc1O)C(C)NCC2 (racemic) | 34 µM | 
28 | COc1cc2c(cc1OC)[C@H](C)N(C)CC2 [CARNEGINE HYDROCHLORIDE] | 102 µM | Ki [5]: 1600 µM
29 | COc1c2c(c(OC)c(OC)c1OC)CNCC2 [NORWEBERINE] |  | Ki [3]: 700 µM; Ki [5]: 580 µM
30 | COc1cc2c(cc1O)CCN[C@H]2C [SALSOLINE HYDROCHLORIDE] | 160 µM | 
31 | C[C@@H]1NCCc2cc(O)c(O)cc21 [SALSOLINOL HYDROBROMIDE] | 284 µM | 
32 | COc1c2c(c(OC)c(OC)c1OC)CN(C)CC2 [WEBERINE] | 260 µM | Ki [2]: 1900 µM
